Data: patent US10172837B2, “Insulin sensitisers and methods of treatment” (NAIA Metabolic, Inc., priority 2007, dated 2019)

Legend:
[1] = system: obese Psammomys obesus (Israeli sand rats); assay: Oral glucose tolerance test in obese Psammomys obesus; assay type: in vivo
Source text: The outbred Israeli sand rat, Psammomys obesus is a unique animal model for the study of obesity and diabetes. When housed under standard laboratory conditions, a proportion of Israeli sand rats become obese and develop type 2 diabetes spontaneously, without requiring high caloric feeding like the diet-induced obese mouse model, or as a consequence of a mutation in a particular gene as in the db/db mouse model. In this regard their evolution into a diabetic state closely resembles the environmental and polygenic human condition. Type 2 diabetic P. obesus are also profoundly insulin resistant, as measured by the area under the blood glucose curve during an oral glucose tolerance test (OGTT). In addition, a proportion of the animals remain lean and healthy under these same conditions, while others develop a range of intermediate phenotypes. This response is similar to that seen in human populations. Diabetic P. obesus are characterised by having elevated blood glucose levels. […] USA). […] Glucose was measured in whole blood using a YSI glucose analyser (Model #2300 STAT PLUS, Yellow Springs Instruments Co., Ohio, USA). The instrument takes a sample aliquot of 25 μl and is calibrated every 10 samples using 5.55 and 8.33 mmol/L glucose standards. The analyser utilises a probe fitted with a 3-layer membrane containing an immobilised enzyme. J3-D-glucose is oxidised by glucose oxidase, which is immobilised on a polycarbonate cellulose membrane, to form glucono-( )-lactone and hydrogen peroxide. The hydrogen peroxide in turn, is oxidised at the platinum anode, producing electrons. The electron flow is linearly proportional to the steady state hydrogen peroxide concentration and therefore to the concentration of glucose in the sample. Insulin levels were measured in plasma obtained after the […] heparin-coated tubes. Plasma insulin concentrations were determined using a commercially-available double antibody radio-immunoassay (RIA) kit. (Linco Research Inc., USA). […] Solutions were then incubated for 2 hours before adding 1 ml of sheep anti-guinea pig antibody (second antibody) and left to incubate again for 30 min at room temperature. Bound and free insulin were then separated by centrifugation at 3,500 g for 20 min (Beckman Centrifuge Model J6B, Beckman Instruments, […], Australia), leaving the bound insulin in a pellet at the bottom of the tube following aspiration of each sample. A gamma counter (Minaxi g Auto-gamma 5000 series. Packard Instrument Company, IL, USA) with a counting time of 1 min was then used to measure the radioactivity of the solid phase pellet.

[2] = system: 3T3-L1 adipocytes; assay: 2-Deoxyglucose uptake by 3T3-L1 adipocytes; assay type: cell-based; settings: for 2-Deoxyglucose uptake (Normalised: Vehicle with no insulin = 100%): DCP 10 μM
Method: Dichlorphenamide was added during serum-starvation. […] Insulin at 0, 0.5 and 10 nM was added for 20 min at 37° C. Uptake of 50 μM 2-deoxy glucose and 0.5 μCi 2-deoxy-[U-^3H] glucose (NEN, PerkinElmer Life Sciences) per well was measured over the final 10 min of insulin stimulation. […] Counts per minute (cpm) were measured by scintillator counter. […] The data is expressed as a mean±SEM. The statistical analysis was performed using an umpaired t-test (2-tailed).

[3] = system: Diet-Induced Obese (DIO) Mice; assay: Fasting plasma glucose in diet-induced obese mice; assay type: in vivo, Mus Musculus
[4] = system: Diet-Induced Obese (DIO) Mice; assay: ipGTT (glucose tolerance) in diet-induced obese mice; assay type: in vivo, Mus Musculus; settings: for AUC Day −1: before dosing; for AUC Day −1 / AUC Day 19: in mM·min
[5] = 20 mg/Kg DCP oral gavage, 0 min after glucose gavage
[6] = 20 mg/Kg DCP oral gavage, 15 min after glucose gavage
[7] = 20 mg/Kg DCP oral gavage, 30 min after glucose gavage
[8] = 20 mg/Kg DCP oral gavage, 45 min after glucose gavage
[9] = 20 mg/Kg DCP oral gavage, 60 min after glucose gavage
[10] = 20 mg/Kg DCP oral gavage, 90 min after glucose gavage
[11] = dichlorphenamide 20 mg/kg oral gavage
[12] = Dichlorphenamide 50 mg/kg oral gavage

NS(=O)(=O)c1cc(Cl)c(Cl)c(S(N)(=O)=O)c1 [Dichlorphenamide]
Plasma Glucose [1, 5]: 3.4 ± 0.2 mM
Plasma Insulin [1, 5]: 48 ± 15 mU/ml
Plasma Glucose [1, 6]: 5.4 ± 0.2 mM
Plasma Insulin [1, 6]: 141 ± 21 mU/ml
Plasma Glucose [1, 7]: 4.7 ± 0.4 mM
Plasma Insulin [1, 7]: 149 ± 49 mU/ml
Plasma Glucose [1, 8]: 5.1 ± 0.3 mM
Plasma Insulin [1, 8]: 123 ± 39 mU/ml
Plasma Glucose [1, 9]: 4.7 ± 0.4 mM
Plasma Insulin [1, 9]: 202 ± 46 mU/ml
Plasma Glucose [1, 10]: 4.3 ± 0.4 mM
Plasma Insulin [1, 10]: 117 ± 22 mU/ml
Plasma Glucose AUC ([1]; 20 mg/Kg DCP oral gavage, OGTT 0-90 min): 119 ± 16 mM·min
Plasma Insulin AUC ([1]; 20 mg/Kg DCP oral gavage, OGTT 0-90 min, listed as head prints (mM · min)): 8,548 ± 2441
effect on glucose tolerance in oral glucose tolerance test ([1]; area under plasma glucose and plasma insulin curve): increased the glucose tolerance
2-Deoxyglucose uptake (Normalised: Vehicle with no insulin = 100%) ([2]; 0.5 nM Insulin): 1468 ± 400^2%
2-Deoxyglucose uptake (Normalised: Vehicle with no insulin = 100%) ([2]; 10 nM Insulin): 1826 ± 97 ^ %
2-Deoxyglucose uptake (Normalised: Vehicle with no insulin = 100%) ([2]; no insulin (basal)): 508 ± 57^1%
effect on basal and insulin stimulated 2-deoxyglucose uptake ([2]; basal, 0.5 nM and 10 nM insulin): enhanced
effect on fasting plasma glucose levels of diet-induced obese mice [3]: reduced the fasting plasma glucose levels
FPG Day −1 ([3]; dichlorphenamide 20 mg/kg group, before dosing): 10.05 ± 0.2 mM
Delta FPG Treatment Day 14 vs Day −1 [3, 11]: −17%^1
Delta FPG Treatment vs Vehicle Day 14 [3, 11]: −11%^2
FPG Day 14 [3, 11]: 8.35 ± 0.2 mM
effect on glucose tolerance of diet-induced obese mice [4]: improves the glucose tolerance
AUC Day −1 ([4]; Dichlorphenamide 20 mg/kg group): 1350 ± 56
AUC Day 19 ([4]; Dichlorphenamide 20 mg/kg oral gavage): 832 ± 80
AUC Day −1 ([4]; Dichlorphenamide 50 mg/kg group): 1345 ± 73
AUC Day 19 Treat vs Veh [4, 12]: −8%
Delta AUC Day 19 vs Day −1 [4, 12]: −32%^1
AUC Day 19 [4, 12]: 908 ± 38
AUC Day 19 Treat vs Veh [4, 11]: −16%
Delta AUC Day 19 vs Day −1 [4, 11]: −38%^2
